What was measured:
Heixudian mutants = conditions: Drosophila Heixudian mutants; Vos et al., Science 2012; cited from earlier work
[1] = tested on: Drosophila model for Parkinson disease; assay: Flight assay in Drosophila model for Parkinson disease; assay type: in vivo
Procedure: Flight assays were conducted using male flies in batches of 5 flies each. Flies were placed in an empty vial (5 cm×10 cm), gently tapped and scored visually for their ability to fly. […] The combination of both treatments (e.g., Vitamin K2 and light) provided more than 50% restoration of the locomotor impairment.

CC(C)=CCC/C(C)=C/CC/C(C)=C/CC/C(C)=C/CC1=C(C)C(=O)c2ccccc2C1=O [Vitamin K2]
severe mitochondria defects (Heixudian mutants): rescued
restoration of the locomotor impairment (flight capacity) ([1]; combination of Vitamin K2 and light (808 nm continuous laser diode, 100 s, 25 mW/cm2)): more than 50%
restored flight capability (animals able to fly) ([1]; systemic administration of Vitamin K2 alone, male flies, non-treated controls less than 15%): about 30%
